From patent US8158605B2, “Azacytidine analogues and uses thereof” (Mount Sinai School of Medicine, priority 2007, dated 2012)

Tests used:
[1] = test system: HL60, K562, and U937 cells; experiment: Apoptosis induction in leukemia cells (AO/EB microscopy, Annexin-V/PI flow cytometry); type: cell-based, human; details: 0.5-4 μM, 24 hours; AO/EB staining and Annexin-V/PI flow cytometry
Procedure: Apoptotic cells were defined using morphological criteria and fluorescence-activated cell sorting (FACS) after staining with Annexin V-FITC. For morphologic analysis, 1 μl of stock solution containing 100 μg/ml AO and 100 μg/ml EB was added to 25 μl cells suspension. The apoptitic cells and apoptotic bodies were analyzed with the aid of a fluorescence microscopy. The percentage of apoptotic cells was calculated after counting total 300 cells. For FACS analysis, […] to 5×10^6 cells were washed with PBS and then labeled with Annexin V-FICS and propidium iodide (PI) in medium-binding reagent according to the Annexin V-FITC apoptosis detection kit instruction provided by the manufacturer. Fluorescent signals of FITC and PI were detected, respectively, at 518 nm and at 620 nm on FACSCAN (Becton Dickinson, San Jose, Calif.). […] The data was analyzed by the CellQuest program (Becton Dickinson). For each analysis, 10,000 cells events were recorded.
The percentage of apoptotic cells was determined with the aid of a fluoresence microscope after staining with acridine orange and ethidium bromide (See FIG. 2A). […] The percentage of apoptotic cells was determined by flow cytometry using Annexin-V and PI staining. […] (See FIGS. 2a and 2b)

[2] = Metabolic stability in pooled human plasma at 37° C.; type: in vitro ADME
Procedure: The mixture was incubated in a shaking water batch at 37° C. Aliquots (100 μl) of the incubation solutions were withdrawn in triplicate (n=3) at the designed incubation period (0, 15, 30, 60 and 120 minutes), and plasma protein was immediately precipitated using acetonitrile containing 0.1% formic acid (300 μl). […] After centrifugation, the supernatant was directly introduced for LC-MS-MS analysis.

[3] = test system: MT-3/ADR resistant breast carcinoma; experiment: MTT cytotoxicity; type: cell-based; details: MDR1, MT-3/ADR resistant breast carcinoma (overexpress MDR-1/p-glycoprotein), 24 hours
Procedure: (§1) The cytotoxicity of Aza-C and 5-Aza-C-5′-elaidic acid was determined in a breast cancer cell line MT-3 and the adriablastin resistant cell line MT-3/ADR. The MT-3/ADR overexpress the MDR-1/p-glycoprotein. […] The cells were incubated for 24 hours. […] Six wells were used per test concentration. The cells were incubated with test compound for 24 hours. […] Similar activity was obtained for Aza-C and 5-Aza-C-5′-elaidic acid in the MT-3 breast carcinoma cell line, but in the MT-3/ADR resistant cell line the activity of Aza-C was lost. […] This may be of importance in the treatment of resistant cancer.

[4] = test system: breast carcinoma cell line MT-3; experiment: MTT cytotoxicity; type: cell-based; details: MT-3 breast carcinoma, 24 hours
Procedure: as §1

NFκB = experiment: LPS stimulated NFκB luciferase reporter activity in U937 cells; type: cell-based, human; details: 10 nM, LPS 1 μg/ml, 1, 3 or 6 hours, compared to DMSO treated control
Procedure: NFκB-luciferase reporter genes were used to determine the influence of Aza-C and 5-Aza-C-5′-elaidic acid on NFκB-induced luciferase activity in a human monocytic cell line U937, stably transfected with a luciferase reporter containing three NFκB-binding sites. The induction of NFκB was performed using lipopolysaccharide (LPS) at 1 μg/ml for 30 minutes prior to the addition of Aza-C or 5-Aza-C-5′-elaidic acid in the concentrations 10 nM to the medium. The cells were cultured in RPMI-1640 medium including 10% fetal bovine serum. Before stimulation with LPS the cells were transferred to medium containing only 2% fetal bovine serum. Luciferase activity was measured by imaging in an IVIS imaging System 100 (Xenogen Corp., USA) after 1, 3 or 6 hours. The LPS stimulation increased with time over the 6 hours followed in the DMSO treated control cells. […] Generally, a positive stimulation of NFκB as observed for azacytidine is not positive, and it is positive that the LPS stimulation is not further increased by 5′Aza-C-5′-elaidic acid.

Question: Which “number of apoptotic cells” value [1] does the source give for CCCCCCCC/C=C/CCCCCCCC(=O)OC[C@H]1O[C@@H](n2cnc(N)nc2=O)[C@H](O)[C@@H]1O [CP, 5-azacytidine 5′-elaidate] here?
Answer: concentration-dependent increase in the number of apoptotic cells

Question: What about the half-life at 0.1 μM ([2]; 0.1 μM) of the same molecule?
Answer: 2.68 h

Question: What about the “% Remaining of initial (mean ± SD, n = 3)” value ([2]; 0.1 μM, 0 min) of the same molecule?
Answer: 100%

Question: What about the “% Remaining of initial (mean ± SD, n = 3)” value ([2]; 0.1 μM, 15 min) of the same molecule?
Answer: 95.8 ± 3.0%

Question: And the “% Remaining of initial (mean ± SD, n = 3)” value ([2]; 0.1 μM, 30 min)?
Answer: 95.0 ± 2.0%

Question: And the “% Remaining of initial (mean ± SD, n = 3)” value ([2]; 0.1 μM, 60 min)?
Answer: 92.1 ± 3.4%

Question: And the “% Remaining of initial (mean ± SD, n = 3)” value ([2]; 0.1 μM, 120 min)?
Answer: 59.0 ± 1.6%

Question: And the half-life at 1 μM ([2]; 1 μM)?
Answer: 2.17 h

Question: And the “% Remaining of initial (mean ± SD, n = 3)” value ([2]; 1 μM, 0 min)?
Answer: 100%

Question: And the “% Remaining of initial (mean ± SD, n = 3)” value ([2]; 1 μM, 15 min)?
Answer: 93.3 ± 1.1%

Question: And the “% Remaining of initial (mean ± SD, n = 3)” value ([2]; 1 μM, 30 min)?
Answer: 88.9 ± 1.1%

Question: And the “% Remaining of initial (mean ± SD, n = 3)” value ([2]; 1 μM, 60 min)?
Answer: 79.8 ± 2.6%

Question: What about the “% Remaining of initial (mean ± SD, n = 3)” value ([2]; 1 μM, 120 min) of the same molecule?
Answer: 52.5 ± 3.1%

Question: What about the half-life at 3 μM ([2]; 3 μM) of the same molecule?
Answer: 2.35 h

Question: And the “% Remaining of initial (mean ± SD, n = 3)” value ([2]; 3 μM, 0 min)?
Answer: 100%

Question: What about the “% Remaining of initial (mean ± SD, n = 3)” value ([2]; 3 μM, 15 min) of the same molecule?
Answer: 99.0 ± 3.5%

Question: What about the “% Remaining of initial (mean ± SD, n = 3)” value ([2]; 3 μM, 30 min) of the same molecule?
Answer: 96.0 ± 3.0%

Question: What about the “% Remaining of initial (mean ± SD, n = 3)” value ([2]; 3 μM, 60 min) of the same molecule?
Answer: 85.4 ± 3.4%

Question: And the “% Remaining of initial (mean ± SD, n = 3)” value ([2]; 3 μM, 120 min)?
Answer: 56.6 ± 1.6%

Question: What about the half-life at 10 μM ([2]; 10 μM) of the same molecule?
Answer: 1.43 h

Question: And the “% Remaining of initial (mean ± SD, n = 3)” value ([2]; 10 μM, 0 min)?
Answer: 100%

Question: What about the “% Remaining of initial (mean ± SD, n = 3)” value ([2]; 10 μM, 15 min) of the same molecule?
Answer: 96.0 ± 2.0%

Question: And the “% Remaining of initial (mean ± SD, n = 3)” value ([2]; 10 μM, 30 min)?
Answer: 93.1 ± 0.0%

Question: And the “% Remaining of initial (mean ± SD, n = 3)” value ([2]; 10 μM, 60 min)?
Answer: 77.1 ± 3.1%

Question: And the “% Remaining of initial (mean ± SD, n = 3)” value ([2]; 10 μM, 120 min)?
Answer: 39.1 ± 1.7%

Question: And the half-life at 30 μM ([2]; 30 μM)?
Answer: 1.82 h

Question: What about the “% Remaining of initial (mean ± SD, n = 3)” value ([2]; 30 μM, 0 min) of the same molecule?
Answer: 100%

Question: What about the “% Remaining of initial (mean ± SD, n = 3)” value ([2]; 30 μM, 15 min) of the same molecule?
Answer: 97.7 ± 3.5%

Question: What about the “% Remaining of initial (mean ± SD, n = 3)” value ([2]; 30 μM, 30 min) of the same molecule?
Answer: 90.4 ± 2.6%

Question: And the “% Remaining of initial (mean ± SD, n = 3)” value ([2]; 30 μM, 60 min)?
Answer: 78.5 ± 1.7%

Question: And the “% Remaining of initial (mean ± SD, n = 3)” value ([2]; 30 μM, 120 min)?
Answer: 47.4 ± 1.1%

Question: And the IC50 [3]?
Answer: 14.8 ± 12.8 µM

Question: What about the IC50 [4] of the same molecule?
Answer: 17 ± 15.7 µM

Question: What about the “LPS stimulated NFκB luciferase activity” value (NFκB) of the same molecule?
Answer: did not differ from the DMSO control
